Structures are written as SMILES. Values after ≈ are worked out from the molar mass of the structure shown.

Experimental findings from paper PMC10530720, “Antimicrobial Activity and Toxicity of Newly Synthesized 4-[4-(benzylamino)butoxy]-9H-carbazole Derivatives” (International Journal of Molecular Sciences, 2023) are described below.

What all share (assay type): cell-based
For experiment [1], the system named is Staphylococcus aureus ATCC 29213. Put plainly: Broth microdilution (CLSI), growth, MIC and MBC. The conditions noted are these: for MIC / inhibition at 16 µg/mL: Staphylococcus aureus; for MIC: ATCC29213, S. aureus, 24 h at 37 °C; for MBC/MFC: S. aureus (MBC); for inhibition at 16 µg/mL: ATCC29213, 16 µg/mL, read-out: inhibition of S. aureus growth.
The test system of experiment [2] is Staphylococcus epidermidis ATCC 12228. Description: Broth microdilution (CLSI), growth, MIC and MBC. As to conditions: for MIC: Staphylococcus epidermidis, ATCC12228, S. epidermidis, 24 h at 37 °C; for MBC/MFC: S. epidermidis (MBC). (In general: In broth dilution the organism is exposed to a series of concentrations in liquid medium.)
The test system of experiment [3] is Escherichia coli ATCC 25922. Put plainly: Broth microdilution (CLSI), growth, MIC and MBC. The conditions noted are these: for MBC/MFC: E. coli (MBC); for MIC: Escherichia coli, ATCC25922, E. coli, 24 h at 37 °C.
In experiment [4] the test system is Pseudomonas aeruginosa ATCC 15442. Description: Broth microdilution (CLSI), growth, MIC and MBC. As to conditions: for MBC/MFC: P. aeruginosa (MBC); for MIC: Pseudomonas aeruginosa, ATCC15442, P. aeruginosa, 24 h at 37 °C.
Experiment [5] concerns Aspergillus flavus ATCC 9643. Put plainly: Broth microdilution (CLSI), growth, MIC and MFC. The conditions noted are these: for MBC/MFC: A. flavus (MFC); for MIC: Aspergillus flavus, ATCC9643, A. flavus, 48 h at 37 °C.
In experiment [6] the test system is Candida albicans ATCC 10231. Put plainly: Broth microdilution (CLSI), growth, MIC and MFC. As to conditions: for MBC/MFC: C. albicans (MFC); for MIC: ATCC10231, C. albicans, 48 h at 37 °C.

What is called MIC is the lowest concentration that inhibits growth of the organism. Low values mean a more susceptible organism, high ones a less susceptible organism. Regarding `Fc1ccc(CNCCCCOc2cccc3[nH]c4ccccc4c23)cc1` [Compound 3, 4-[4-(4-fluorophenylmethylamino)butoxy]-9H-carbazole], the MIC in experiment [1] is 32 µg/mL (≈ 88.3 µM); in experiment [2], 32 µg/mL (≈ 88.3 µM); in experiment [3], greater than 64 µg/mL; in experiment [4], greater than 64 µg/mL; in experiment [5], greater than 64 µg/mL; in experiment [6] (Candida albicans), greater than 64 µg/mL. The MBC/MFC in experiment [3], in experiment [4], in experiment [5] and in experiment [6] was greater than 64 µg/mL each time. Besides, the “antimicrobial properties against E. coli, ranking in words” value in experiment [3] (among compounds 1–10) was “strongest antimicrobial properties”.
For `Br.C[C@H](NCCCCOc1cccc2[nH]c3ccccc3c12)c1ccccc1` [Compound 10, (S)-4-[4-(1-phenylethylamino)butoxy]-9H-carbazole hydrobromide], the MBC/MFC in experiment [1] is given as 64 µg/mL; in experiment [2] it was 64 µg/mL; in experiment [3], greater than 64 µg/mL; in experiment [4], greater than 64 µg/mL; in experiment [5], greater than 64 µg/mL; in experiment [6], greater than 64 µg/mL. Moreover, the MIC is 32 µg/mL in experiment [1]; 32 µg/mL in experiment [2]; greater than 64 µg/mL in experiment [3]; greater than 64 µg/mL in experiment [4]; greater than 64 µg/mL in experiment [5]; greater than 64 µg/mL in experiment [6] (Candida albicans).
One may read the inhibition as the percentage by which the read-out fell short of the control. Regarding `Fc1cccc(CNCCCCOc2cccc3[nH]c4ccccc4c23)c1` [Compound 2, 4-[4-(3-fluorophenylmethylamino)butoxy]-9H-carbazole], the MBC/MFC in experiment [1] is recorded as 32 µg/mL (≈ 88.3 µM); in experiment [2] it was 32 µg/mL (≈ 88.3 µM); in experiment [3] it was greater than 64 µg/mL; in experiment [4] it was greater than 64 µg/mL; in experiment [5], greater than 64 µg/mL; in experiment [6], greater than 64 µg/mL. In experiment [1], the inhibition at 16 µg/mL is greater than 60%. The minimal inhibitory concentration (MIC) in experiment [1] was 32 µg/mL (≈ 88.3 µM); in experiment [2], 32 µg/mL (≈ 88.3 µM); in experiment [3], greater than 64 µg/mL; in experiment [4], greater than 64 µg/mL; in experiment [5], greater than 64 µg/mL; in experiment [6] (Candida albicans) it was greater than 64 µg/mL. The inhibition at 64 µg/mL in experiment [6] (Candida albicans, ATCC10231, 64 µg/mL (highest tested concentration), read-out: C. albicans growth inhibition) is roughly 60%.
As to `C[C@@H](NCCCCOc1cccc2[nH]c3ccccc3c12)c1ccccc1` [Compound 4, (R)-4-[4-(1-phenylethylamino)butoxy]-9H-carbazole], the MBC/MFC in experiment [1] was 32 µg/mL (≈ 89.3 µM); in experiment [2] it was 32 µg/mL (≈ 89.3 µM); in experiment [3], greater than 64 µg/mL; in experiment [4], greater than 64 µg/mL; in experiment [5], greater than 64 µg/mL; in experiment [6], greater than 64 µg/mL. Also, in experiment [1], the inhibition at 16 µg/mL is greater than 60%. In addition, the MIC is 32 µg/mL (≈ 89.3 µM) in experiment [1]; 32 µg/mL (≈ 89.3 µM) in experiment [2]; greater than 64 µg/mL in experiment [3]; greater than 64 µg/mL in experiment [4]; greater than 64 µg/mL in experiment [5]; greater than 64 µg/mL in experiment [6] (Candida albicans).
On to `C[C@@H]1[C@H](O)[C@@H](C)/C=C/C=C/C=C/C=C/C=C/C=C/C=C/[C@H](O[C@@H]2O[C@H](C)[C@@H](O)[C@H](N)[C@@H]2O)C[C@@H]2O[C@](O)(C[C@@H](O)C[C@@H](O)[C@H](O)CC[C@@H](O)C[C@@H](O)CC(=O)O[C@H]1C)C[C@H](O)[C@H]2C(=O)O` [Amphotericin B, reference compound], for which the MBC/MFC was found to be 16 µg/mL (≈ 17.3 µM) in experiment [5] and 1 µg/mL (≈ 1.08 µM) in experiment [6]. Also, the MIC in experiment [5] amounted to 4 µg/mL (≈ 4.33 µM); in experiment [6] (Candida albicans) it was 1 µg/mL (≈ 1.08 µM).
Turning to `C[C@H](NCCCCOc1cccc2[nH]c3ccccc3c12)c1ccccc1` [Compound 5, (S)-4-[4-(1-phenylethylamino)butoxy]-9H-carbazole], the MBC/MFC in experiment [1] is 64 µg/mL (≈ 179 µM); in experiment [2], 64 µg/mL (≈ 179 µM); in experiment [3], greater than 64 µg/mL; in experiment [4], greater than 64 µg/mL; in experiment [5], greater than 64 µg/mL; in experiment [6], greater than 64 µg/mL. For the same compound, the MIC in experiment [1] is 32 µg/mL (≈ 89.3 µM); in experiment [2] it was 32 µg/mL (≈ 89.3 µM); in experiment [3] it was greater than 64 µg/mL; in experiment [4], greater than 64 µg/mL; in experiment [5] it was greater than 64 µg/mL; in experiment [6] (Candida albicans), greater than 64 µg/mL.
